Measured values taken from patent publication US5041567A, “Antibacterial monic acid derivatives” (Beecham Group plc, priority 1982, dated 1991).
Converted amounts (≈) assume the structure as drawn. Like-named read-outs stand apart in the source and are kept apart here.

Experiments:
[1] = tested on: M. suipneumoniae ATCC 25095; assay: MIC against mycoplasma in vitro; assay type: cell-based; conditions: Mesomycoplasma hyopneumoniae, ATCC25095, 144 h
M. suipneumoniae MS 16 = assay: MIC against mycoplasma in vitro; assay type: cell-based; conditions: Mesomycoplasma hyopneumoniae, MS16, 144 h
M. suipneumoniae JF 435 = assay: MIC against mycoplasma in vitro; assay type: cell-based; conditions: Mesomycoplasma hyopneumoniae, JF435, 144 h
Staph. aureus W2827 = assay: MIC against human bacteria in vitro; assay type: cell-based; conditions: Staphylococcus aureus; Staph. aureus W2827; 5% chocolated horse blood agar, 18 hours; read-out: MIC
M. suipneumoniae Str. 11 = assay: MIC against mycoplasma in vitro; assay type: cell-based; conditions: Mesomycoplasma hyopneumoniae, STR.11, 144 h
Strep. agalactiae 2788-B = assay: MIC against human bacteria in vitro; assay type: cell-based; conditions: Streptococcus agalactiae; Strep. agalactiae 2788-B; 5% chocolated horse blood agar, 18 hours; read-out: MIC
[2] = tested on: M. bovigenitalium ATCC 14173; assay: MIC against mycoplasma in vitro; assay type: cell-based; conditions: 144 h
M. hyorhinis ATCC 25021 = assay: MIC against mycoplasma in vitro; assay type: cell-based; conditions: Mesomycoplasma hyorhinis, ATCC25021, 144 h
M. suipneumoniae TAM 6N = assay: MIC against mycoplasma in vitro; assay type: cell-based; conditions: Mesomycoplasma hyopneumoniae, TAM6N, 144 h
[3] = tested on: Corynebacterium pyogenes CY1; assay: MIC against veterinary bacteria in vitro; conditions: CY1, 18 h
Experimental: (§1) The activity of the compounds of the Examples against various veterinarily important bacteria, was assayed in vitro using two-fold serial dilutions in Diagnostic Sensitivity Test Agar inoculated with 10^4 organisms.

[4] = tested on: Staph. aureus B4 (pen. resistant); assay: MIC against veterinary bacteria in vitro; conditions: Staphylococcus aureus, 18 h
Experimental: as §1

K. aerogenes A = assay: MIC against human bacteria in vitro; assay type: cell-based; conditions: Klebsiella aerogenes; K. aerogenes A; 5% chocolated horse blood agar, 18 hours; read-out: MIC
[5] = tested on: Ps. aeruginosa NCTC 10662; assay: MIC against human bacteria in vitro; assay type: cell-based; conditions: Pseudomonas aeruginosa, NCTC10662; Ps. aeruginosa NCTC 10662; 5% chocolated horse blood agar, 18 hours; read-out: MIC
S. dublin S7 = assay: MIC against veterinary bacteria in vitro; conditions: Salmonella enterica, S7, 18 h
Experimental: as §1

Bacillus subtilis 6633 = assay: MIC against human bacteria in vitro; assay type: cell-based; conditions: Bacillus subtilis 6633; 5% chocolated horse blood agar, 18 hours; read-out: MIC
[6] = tested on: Neisseria catarrhalis 1502; assay: MIC against human bacteria in vitro; assay type: cell-based; conditions: Neisseria catarrhalis 1502; 5% chocolated horse blood agar, 18 hours; read-out: MIC
[7] = tested on: Haemophilus influenzae Wy21; assay: MIC against human bacteria in vitro; assay type: cell-based; conditions: Haemophilus influenzae Wy21; 5% chocolated horse blood agar, 18 hours; read-out: MIC
M. suipneumoniae NB12 = assay: MIC against mycoplasma in vitro; assay type: cell-based; conditions: Mesomycoplasma hyopneumoniae
[8] = tested on: Strep. suis (group D) SPS11; assay: MIC against veterinary bacteria in vitro; conditions: Streptococcus suis, 18 h
Experimental: as §1

Strep. uberis SPU1 = assay: MIC against veterinary bacteria in vitro; conditions: Streptococcus uberis, SPU1, 18 h
Experimental: as §1

[9] = tested on: Pasteurella multocida 1633; assay: MIC against human bacteria in vitro; assay type: cell-based; conditions: Pasteurella multocida 1633; 5% chocolated horse blood agar, 18 hours; read-out: MIC
Staph. aureus Oxford = assay: MIC against human bacteria in vitro; assay type: cell-based; conditions: Staphylococcus aureus; Staph. aureus Oxford; 5% chocolated horse blood agar, 18 hours; read-out: MIC
P. mirabilis 889 = assay: MIC against human bacteria in vitro; assay type: cell-based; conditions: Proteus mirabilis; P. mirabilis 889; 5% chocolated horse blood agar, 18 hours; read-out: MIC
[10] = tested on: Strep. pyogenes R80/421-A; assay: MIC against human bacteria in vitro; assay type: cell-based; conditions: Streptococcus pyogenes; Strep. pyogenes R80/421-A; 5% chocolated horse blood agar, 18 hours; read-out: MIC
Sarcina lutea 8340 = assay: MIC against human bacteria in vitro; assay type: cell-based; conditions: Micrococcus luteus; Sarcina lutea 8340; 5% chocolated horse blood agar, 18 hours; read-out: MIC
[11] = tested on: M. suipneumoniae J2206/183^b; assay: MIC against mycoplasma in vitro; assay type: cell-based; conditions: Mesomycoplasma hyopneumoniae, 144 h
Staph. aureus Russell = assay: MIC against human bacteria in vitro; assay type: cell-based; conditions: Staphylococcus aureus; Staph. aureus Russell; 5% chocolated horse blood agar, 18 hours; read-out: MIC
[12] = tested on: Corynebacterium xerosis 9755; assay: MIC against human bacteria in vitro; assay type: cell-based; conditions: Corynebacterium xerosis 9755; 5% chocolated horse blood agar, 18 hours; read-out: MIC
Strep. spp. 64/848-C = assay: MIC against human bacteria in vitro; assay type: cell-based; conditions: Strep. spp. 64/848-C; 5% chocolated horse blood agar, 18 hours; read-out: MIC
Strep. faecalis I = assay: MIC against human bacteria in vitro; assay type: cell-based; conditions: Enterococcus faecalis; Strep. faecalis I; 5% chocolated horse blood agar, 18 hours; read-out: MIC
M. dispar NCTC 10125 = assay: MIC against mycoplasma in vitro; assay type: cell-based; conditions: 144 h
Past. multocida PA1 = assay: MIC against veterinary bacteria in vitro; conditions: Pasteurella multocida, PA1, 18 h
Experimental: as §1

[13] = tested on: M. hyosynoviae ATCC 25591; assay: MIC against mycoplasma in vitro; assay type: cell-based; conditions: 144 h
E. coli ESS = assay: MIC against human bacteria in vitro; assay type: cell-based; conditions: Escherichia coli; E. coli ESS; 5% chocolated horse blood agar, 18 hours; read-out: MIC
Strep. agalactiae SPA1 = assay: MIC against veterinary bacteria in vitro; conditions: Streptococcus agalactiae, SPA1, 18 h
Experimental: as §1

Compound | MIC (M. suipneumoniae MS 16) | MIC (Staph. aureus W2827) | MIC (M. suipneumoniae Str. 11) | MIC (Strep. agalactiae 2788-B) | MIC [2] | MIC (M. suipneumoniae TAM 6N) | MIC [3] | MIC [4] | MIC (K. aerogenes A) | MIC [5] | MIC (S. dublin S7) | MIC (Bacillus subtilis 6633) | MIC [6] | MIC [7] | MIC [8] | MIC (Strep. uberis SPU1) | MIC [9] | MIC (Staph. aureus Oxford) | MIC (P. mirabilis 889) | MIC [10] | further results
COc1ccc(-c2cnc(/C=C(\C)C[C@@H]3OC[C@H](C[C@@H]4O[C@H]4[C@@H](C)[C@H](C)O)[C@@H](O)[C@H]3O)o2)cc1 [Example 4, 5-p-methoxyphenyl-2-(1-normon-2-yl)oxazole A] | 0.5 µg/mL (≈ 1.06 µM) | 5 µg/mL (≈ 10.6 µM) | 0.5 µg/mL (≈ 1.06 µM) | 5 µg/mL (≈ 10.6 µM) | 0.05 µg/mL (≈ 0.106 µM) | 1 µg/mL (≈ 2.11 µM) | > 80 µg/mL | 5 µg/mL (≈ 10.6 µM) | > 100 µg/mL | > 100 µg/mL | > 80 µg/mL | 5 µg/mL (≈ 10.6 µM) | 10 µg/mL (≈ 21.1 µM) | 2.5 µg/mL (≈ 5.28 µM) | 20 µg/mL (≈ 42.2 µM) | 0.312 µg/mL (≈ 0.659 µM) | 25 µg/mL (≈ 52.8 µM) | 2.5 µg/mL (≈ 5.28 µM) | > 100 µg/mL | 5 µg/mL (≈ 10.6 µM) | MIC [1]: 0.5 µg/mL (≈ 1.06 µM); MIC (M. suipneumoniae JF 435): 1 µg/mL (≈ 2.11 µM); MIC (M. hyorhinis ATCC 25021): 0.5 µg/mL (≈ 1.06 µM); MIC (M. suipneumoniae NB12; NB12, 144 h): 0.5 µg/mL (≈ 1.06 µM); MIC (Sarcina lutea 8340): > 100 µg/mL; MIC [11]: 1 µg/mL (≈ 2.11 µM); MIC (Staph. aureus Russell): 5 µg/mL (≈ 10.6 µM); MIC [12]: > 100 µg/mL; MIC (Strep. spp. 64/848-C): 5 µg/mL (≈ 10.6 µM); MIC (Strep. faecalis I): > 100 µg/mL; MIC (M. dispar NCTC 10125): 0.25 µg/mL (≈ 0.528 µM); MIC (Past. multocida PA1): 5 µg/mL (≈ 10.6 µM); MIC [13]: 0.5 µg/mL (≈ 1.06 µM); MIC (E. coli ESS): 2.5 µg/mL (≈ 5.28 µM)
C/C(=C\c1ncc(-c2ccc(Br)cc2)o1)C[C@@H]1OC[C@H](C[C@@H]2O[C@H]2[C@@H](C)[C@H](C)O)[C@@H](O)[C@H]1O [Example 18, 5-p-Bromophenyl-2-(1-normon-2-yl) oxazole A] | 0.25 µg/mL (≈ 0.479 µM) | 8 µg/mL (≈ 15.3 µM) | 0.25 µg/mL (≈ 0.479 µM) | 8 µg/mL (≈ 15.3 µM) | 0.1 µg/mL (≈ 0.191 µM) | 1 µg/mL (≈ 1.91 µM) | > 80 µg/mL | 0.156 µg/mL (≈ 0.299 µM) | > 128 µg/mL | > 128 µg/mL | > 80 µg/mL | 1 µg/mL (≈ 1.91 µM) | 4 µg/mL (≈ 7.66 µM) | 4 µg/mL (≈ 7.66 µM) | 10 µg/mL (≈ 19.1 µM) | < 0.039 µg/mL | 16 µg/mL (≈ 30.6 µM) | 2 µg/mL (≈ 3.83 µM) | > 128 µg/mL | 2 µg/mL (≈ 3.83 µM) | MIC ([1]; M. suipneumoniae ATCC 25095, 6 days, 37° C., read-out: MIC): 0.5 µg/mL (≈ 0.957 µM); MIC (M. suipneumoniae JF 435; M. suipneumoniae JF 435, 6 days, 37° C., read-out: MIC): 0.5 µg/mL (≈ 0.957 µM); MIC (Strep. agalactiae SPA1): 0.625 µg/mL (≈ 1.2 µM); MIC (M. hyorhinis ATCC 25021; M. hyorhinis ATCC 25021, 6 days, 37° C., read-out: MIC): 0.5 µg/mL (≈ 0.957 µM); MIC (M. suipneumoniae NB12; 144 h, M. suipneumoniae NB12, Friis broth, 0.9% agarose, 6 days, 37° C., read-out: MIC): 0.5 µg/mL (≈ 0.957 µM); MIC [11]: 1 µg/mL (≈ 1.91 µM); MIC (Staph. aureus Russell): 8 µg/mL (≈ 15.3 µM); MIC [12]: > 128 µg/mL; MIC (Strep. spp. 64/848-C): 4 µg/mL (≈ 7.66 µM); MIC (Strep. faecalis I): > 128 µg/mL; MIC (M. dispar NCTC 10125): 0.25 µg/mL (≈ 0.479 µM); MIC (Past. multocida PA1): 10 µg/mL (≈ 19.1 µM); MIC ([13]; M. hyosynoviae ATCC 25591, 6 days, 37° C., read-out: MIC): 0.5 µg/mL (≈ 0.957 µM); MIC (E. coli ESS): 8 µg/mL (≈ 15.3 µM)
